In patent publication US10196403B2, “Compounds and compositions and uses thereof” (Sunovion Pharmaceuticals Inc., priority 2016, dated 2019):

Key:
Type in all cases: in vivo
[1] = tested on: mice; test: Neuropharmacological Assay (SmartCube); details: for minimal effective dose: Mus musculus, read-out: POTENCY (minimal effective dose, MED); for AD: ADHD (SmartCube probability) / AG: analgesic (SmartCube probability) / AX: anxiolytic (SmartCube probability) / CE: cognitive enhancer (SmartCube probability) / DP: anti-depressant (SmartCube probability) / MS: mood stabilizer (SmartCube probability) / PS: anti-psychotic (SmartCube probability) / SD: sedative hypnotic (SmartCube probability) / UN: uncharacterized CNS activity (SmartCube probability): mice, i.p. 15 min before test, most efficacious dose(s) of 3 doses
Outline: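 Compounds in NMP/PEG/propylene glycol given i.p. 15 min before automated video-based behavioral testing, at 3 doses; behavioral signature compared with a reference-compound database to give probability per drug class, reported at most efficacious dose. MED = dose (mpk) giving ≥50% total activity; doses typically 0.3–30 mpk.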

[2] = tested on: Male C57Bl/6J mice; test: Amphetamine-induced hyperlocomotion assay; details: AMPH 4 mg/kg ip; stimulant-induced hyperactivity
Experimental: Amphetamine-Induced Hyperlocomotion Assay
Amphetamine (AMPH) is frequently used to induce or mimic a manic-like state. The antimanic-like effects of test compounds were evaluated in male C57Bl/6J mice. Mice were acclimatized to the experimental room for at least 1 hour prior to testing. The mice (n=10 per group) were administered vehicle or test compound and placed in the open field (OF) chambers for 30 minutes of baseline activity measurement. The mice were then injected with either water or AMPH (4 mg/kg, ip) and placed back in the OF chambers for a 60-minute testing session during which, the effects of test compounds on stimulant-induced hyperactivity behaviors (total distance traveled, rearing and stereotypy) were measured. Data were analyzed by analysis of variance (ANOVA) followed by post-hoc comparisons with Fisher Tests when appropriate.

[3] = tested on: Adult male AJ mice; test: Tail suspension test (TST); design: key: +++ = <1.0 mg/kg; ++ = 1-10 mg/kg; + = 10-30 mg/kg; NE = no effect; details: oral gavage 30 min before test; time immobile
From the text: The tail suspension test (TST) is a rodent screening test for potential (human) antidepressant drugs. It is based on the assumption that an animal will actively try to escape an aversive (stressful) stimulus. If escape is impossible, the animal will eventually stop trying (“give up”). In the TST, a mouse is suspended by the tail so that its body dangles in the air, head downward. Mice initially struggle to face upward and climb to a solid surface. When the animal stops struggling and hangs immobile it is considered to have “given up”. Shorter periods of immobility are characteristic of antidepressant-like activity. Accordingly, longer periods of immobility are considered indicative of a depressive-like state. It has been shown that treatment with an antidepressant drug will decrease the time the animal spends immobile. See generally L. Stem et al., Psychopharmacology (Berl). 1985; 85(3):367-70; B. Thierry et al., Psychopharmacology 1986; 90:284-85.
Procedure. Adult male AJ mice from Jackson Laboratories received vehicle (sterile water) or test compound orally by gavage, or the positive control desipramine (20 mg/kg, i.p.), in 10 mL/kg injection volumes, 30 min before being subjected to the Tail Suspension Test. In this test, mice are placed in the Tail Suspension chambers (white polyvinylchloride cubicles measuring 33×33×31.75 cm Med Associates, Inc. St. Albans, Vt.) by a piece of transparent (Scotch®) tape attached to the tail, from about the mid-tail, with approximately 2 cm of tape past the end of the tail for 10 min during which the time spent immobile is measured. A reduction in total time immobile relative to the vehicle condition indicates an antidepressant drug-like response.

[4] = MED = dose having 50% or more total activity in SmartCube

Row | Compound | minimal effective dose [1, 4] [mg/kg] | AD: ADHD (SmartCube probability) [1] | AG: analgesic (SmartCube probability) [1] | AX: anxiolytic (SmartCube probability) [1] | CE: cognitive enhancer (SmartCube probability) [1] | DP: anti-depressant (SmartCube probability) [1] | MS: mood stabilizer (SmartCube probability) [1] | PS: anti-psychotic (SmartCube probability) [1] | SD: sedative hypnotic (SmartCube probability) [1] | UN: uncharacterized CNS activity (SmartCube probability) [1] | AMPH: efficacious dose [2] | TST: efficacious dose [3] | POTENCY (minimal effective dose, MED) [1, 4]
1 | CNC[C@@H]1OCCc2c(F)cccc21 [Example 14, (R)-1-(5-fluoroisochroman-1-yl)-N-methylmethanamine] | < 3 | + (LOQ≤ + <5%) | ++ (5%≤ ++ <25%) | ++ (5%≤ ++ <25%) | ++ (5%≤ ++ <25%) | ++++ (50%≤ ++++) | ++ (5%≤ ++ <25%) | ++ (5%≤ ++ <25%) | ++ (5%≤ ++ <25%) | +++ (25%≤ +++ <50%) | + (+ = 10-30 mg/kg) | + (+ = 10-30 mg/kg) | –
2 | CNC[C@@H]1OCCc2cc(F)ccc21 [Example 17, (R)-1-(6-fluoroisochroman-1-yl)-N-methylmethanamine] | < 3 | + (LOQ≤ + <5%) | ++ (5%≤ ++ <25%) | ++ (5%≤ ++ <25%) | +++ (25%≤ +++ <50%) | ++ (5%≤ ++ <25%) | + (LOQ≤ + <5%) | +++ (25%≤ +++ <50%) | + (LOQ≤ + <5%) | ++ (5%≤ ++ <25%) | ++ (++ = 1-10 mg/kg) | NE | –
3 | CNC[C@@H]1OCCc2ccc3c(c21)OC(F)(F)O3 [Example 101, (R)-1-(2,2-difluoro-6,9-dihydro-7H-[1,3]dioxolo[4,5-h]isochromen-9-yl)-N-methylmethanamine] | 3 to 10 | + (LOQ≤ + <5%) | +++ (25%≤ +++ <50%) | ++ (5%≤ ++ <25%) | ++ (5%≤ ++ <25%) | + (LOQ≤ + <5%) | + (LOQ≤ + <5%) | ++ (5%≤ ++ <25%) | + (LOQ≤ + <5%) | + (LOQ≤ + <5%) | – | – | –
4 | CNC[C@H]1OCCc2ccc3c(c21)OC(F)(F)O3 [Example 102, (S)-1-(2,2-difluoro-6,9-dihydro-7H-[1,3]dioxolo[4,5-h]isochromen-9-yl)-N-methylmethanamine] | 10 to 30 | + (LOQ≤ + <5%) | ++ (5%≤ ++ <25%) | ++ (5%≤ ++ <25%) | + (LOQ≤ + <5%) | ++ (5%≤ ++ <25%) | + (LOQ≤ + <5%) | + (LOQ≤ + <5%) | + (LOQ≤ + <5%) | +++ (25%≤ +++ <50%) | – | – | –
5 | CNC[C@@H]1OCCc2ccc3c(c21)OCC3 [Example 105, (R)-N-methyl-1-(2,3,6,9-tetrahydro-7H-furo[3,2-h]isochromen-9-yl)methanamine] | < 3 | + (LOQ≤ + <5%) | + (LOQ≤ + <5%) | ++ (5%≤ ++ <25%) | + (LOQ≤ + <5%) | ++ (5%≤ ++ <25%) | + (LOQ≤ + <5%) | ++ (5%≤ ++ <25%) | +++ (25%≤ +++ <50%) | + (LOQ≤ + <5%) | – | – | –
6 | CNC[C@H]1OCCc2ccc3c(c21)OCC3 [Example 106, (S)-N-methyl-1-(2,3,6,9-tetrahydro-7H-furo[3,2-h]isochromen-9-yl)methanamine] | 10 to 30 | + (LOQ≤ + <5%) | + (LOQ≤ + <5%) | ++ (5%≤ ++ <25%) | +++ (25%≤ +++ <50%) | ++ (5%≤ ++ <25%) | + (LOQ≤ + <5%) | ++ (5%≤ ++ <25%) | ++ (5%≤ ++ <25%) | + (LOQ≤ + <5%) | – | – | –
7 | CNC[C@@H]1OCCc2ccc3c(c21)CCO3 [Example 107, (R)-N-methyl-1-(3,4,8,9-tetrahydro-1H-furo[2,3-h]isochromen-1-yl)methanamine] | 3 to 10 | + (LOQ≤ + <5%) | + (LOQ≤ + <5%) | ++ (5%≤ ++ <25%) | + (LOQ≤ + <5%) | ++ (5%≤ ++ <25%) | + (LOQ≤ + <5%) | ++ (5%≤ ++ <25%) | ++ (5%≤ ++ <25%) | +++ (25%≤ +++ <50%) | – | – | –
8 | CNC[C@H]1OCCc2ccc3c(c21)CCO3 [Example 108, (S)-N-methyl-1-(3,4,8,9-tetrahydro-1H-furo[2,3-h]isochromen-1-yl)methanamine] | 3 to 10 | + (LOQ≤ + <5%) | + (LOQ≤ + <5%) | + (LOQ≤ + <5%) | + (LOQ≤ + <5%) | ++ (5%≤ ++ <25%) | + (LOQ≤ + <5%) | ++ (5%≤ ++ <25%) | + (LOQ≤ + <5%) | ++++ (50%≤ ++++) | – | – | –
9 | CNC[C@@H]1OCCc2ccc3c(c21)COC3 [Example 109] | – | + (LOQ≤ + <5%) | + (LOQ≤ + <5%) | ++ (5%≤ ++ <25%) | + (LOQ≤ + <5%) | ++ (5%≤ ++ <25%) | + (LOQ≤ + <5%) | ++++ (50%≤ ++++) | ++ (5%≤ ++ <25%) | ++ (5%≤ ++ <25%) | – | – | B (>3 to 10 mpk)
